Laboratory results taken from article PMC5583658, “6,7-dimethoxy-1,2,3,4-tetrahydro-isoquinoline-3-carboxylic acid attenuates heptatocellular carcinoma in rats with NMR-based metabolic perturbations” (Future Science OA, 2017).

Tests used:
Assay type in all cases: in vivo, albino Wistar rats
[1] = system: diethylnitrosamine-induced hepatocarcinogenic rats; test: ALT and AST in plasma of DEN-induced HCC rats; details: DEN+5-FU 10 mg/kg intraperitoneally, 15 days, mean ± SD, n = 6
Protocol: (§1) All animals were randomly divided into five groups of six animals each. Drugs were suspended in 0.25% CMC, subjected to 28 days’ treatment orally and divided as follows: Group I: 0.25% CMC (2 ml/kg), Group II: DEN (8 mg/kg, intraperitoneally), Group III: DEN+5-fluorouracil (5-FU, 10 mg/kg, intraperitoneally), Group IV: DEN+M1 (50 mg/kg, orally) and Group V: DEN+M1 (100 mg/kg, orally). The procedure to induce HCC was adopted from a paper by Song et al. where it is shown that DEN produces HCC at 8 mg/kg intraperitoneal injection for 28 days to albino Wistar rats. After initial 1 week of adaptive inhabitation, all rats of group II–V were administered with DEN (8 mg/kg, intraperitoneally) for 28 days. After 28 days, 5-FU and M1 were given for 15 days as mentioned above for group III–V. At the end of the experimental period, animals were sacrificed by cervical decapitation and livers were dissected out immediately, rinsed in ice cold saline and stored at -20°C for further studies. The serum was collected, processed and stored for further analysis.
(§2) Liver function biomarkers like aspartate aminotransferase (AST), alanine aminotransferase (ALT) were also measured in serum using commercially available kit from Ebra Diagonesis Pvt Ltd, Germany. The oxidative parameters like superoxide dismutase (SOD), thiobarbituric acid reactive substances (TBARS), protein carbonyl (PC), SOD [14], tissue catalase (CAT) and glutathione (GSH) levels were estimated in liver tissue in the similar experiment. The total protein content of each sample was measured using the Bradford reagent and bovine serum albumin was used as a standard. Conjugated bilirubin and biliverdin in liver were measured as per the following procedure stated earlier in the literature with slight modifications.

[2] = system: diethylnitrosamine-induced hepatocarcinogenic rats; test: Oxidative stress parameters (SOD, CAT, GSH, PC, MDA) in liver of DEN-induced HCC rats; details: DEN+5-FU 10 mg/kg intraperitoneally, 15 days, mean ± SD, n = 6
Protocol: as §1, §2

[3] = system: diethylnitrosamine-induced hepatocarcinogenic rats; test: Bilirubin and biliverdin in liver of DEN-induced HCC rats
Protocol: as §1, §2

[4] = system: diethylnitrosamine-induced hepatocarcinogenic rats; test: Histopathological studies of liver (hematoxylin and eosin); details: DEN+5-FU 10 mg/kg intraperitoneally; 40X
Protocol: as §1
Histopathological studies were also performed to find out the morphological changes of liver cells after M1 administration. Liver tissues from each group were assessed for their morphological changes using hematoxylin and eosin staining. The tissues were preserved in 10% formalin overnight. […]

[5] = system: diethylnitrosamine-induced hepatocarcinogenic rats; test: 1H-NMR-based serum metabolic profiling; details: rat serum; DEN+5-FU 10 mg/kg intraperitoneally
Protocol: as §1
All serum samples were thawed at room temperature, 250 μl of serum was taken and mixed with 250 μl of 0.9% saline sodium-phosphate buffer of strength 50 mM, pH 7.4 prepared in D2O. Then, the samples were centrifuged at 10,000 rpm for 5 min to remove any precipitates before acquiring the NMR data. A total 400 μl of the supernatant sample was used in 5 mm NMR tubes (Wilmad Glass, USA) for data acquisition with a co-axial insert containing the known concentration of TSP (sodium salt of 3-trimethylsilyl-(2,2,3,3-d4)-propionic acid) i.e. 0.1% was used as external standard reference to aid metabolite quantification for NMR experiment. Deuterium oxide (D2O; as a co-solvent and to provide a deuterium field/frequency lock) and sodium salt of trimethylsilylpropionic acid-d4 (TSP) used for NMR experiments, were purchased from Sigma-Aldrich (RI, USA).
All NMR spectra were recorded at 298 K on Bruker Biospin Avance-III 800 MHz NMR spectrometer operating at proton frequency of 800.21 MHz, equipped with CryoProbe and an actively shielded gradient unit with a maximum gradient-strength output of […]. The raw NMR data were processed in Topspin-2.1 (Bruker NMR data Processing Software). For each serum sample, one-dimensional ^1H-NMR and diffusion edited ^1H NMR spectra were recorded using the Carr–Purcell–Meiboom–Gill (CPMG) pulse sequence (cpmgpr1d, standard Bruker pulse program) with pre-saturation of the water peak through irradiating it continuously during the recycle delay (RD) of 5 sec, and the bipolar pulse pair longitudinal eddy current delay (BPP-LED) sequence, respectively. Each CPMG spectrum consisted of the accumulation of 128 scans and lasted for approximately 15 minutes. To remove broad signals from triglycerides, proteins, cholesterols and phospholipids, a total spin–spin relaxation time of 60 ms (n = 300 and 2τ=[…]) with a line broadening factor of 0.3 Hz was applied. For diffusion edited (DE)^1H NMR pulse sequence, the square gradients of 70% of the maximum gradient strength (56 G/cm) and 2 ms duration (followed by a delay of 200 μs to allow for the decay of eddy currents) were used. Diffusion time of 120 ms was used to attenuate the signals from low molecular weight compounds without affecting the lipid signals. All the spectra were processed using Topspin-2.1 (Bruker NMR data Processing Software) using standard Fourier Transformation (FT) procedure following manual phase and baseline-correction. Prior to FT, each FID was zero-filled to 4096 data points and a sine-bell apodisation function was applied. After FT, the chemical shifts were referenced internally to methyl peak of L-lactate (at δ=1.33 ppm). All recorded spectra were visually inspected for acceptability and subjected to multivariate statistical analysis to identify the altered metabolic pattern. […]

[6] = DEN+5-FU 10 mg/kg intraperitoneally, 15 days, mean ± SD, n = 6

Question: What does the source list for `O=c1[nH]cc(F)c(=O)[nH]1` [5-FU, 5-fluorouracil, reference compound]?
Answer: ALT [1]: 68.36 ± 5.32 U/L; AST [1]: 61.58 ± 4.17 U/L; CAT [2]: 9.30 ± 0.35 nM of H2O2/min/μg of protein; MDA [2]: 46.24 ± 0.26 nM/μg of protein; PC [2]: 0.35 ± 0.07 μM/μg of protein; Reduced GSH [2]: 7.30 ± 0.39 μM/μg of protein; SOD [2]: 6.99 ± 0.43 U/μg of protein; bilirubin level ([3]; 5-FU-treated rats, text value (toxic ∼60 ng)): ~35 ng; Bilirubin [3, 6]: 34.70 ± 2.12 ng/μg of protein; Biliverdin [3, 6]: 18.39 ± 3.11 ng/μg of protein; liver histopathology [4]: less ruptured and denatured cells (RC and DC) than toxic control; Variation with respect to DEN: Acac (chemical shift 2.28) [5]: ↑; Variation with respect to DEN: Ace (chemical shift 1.92) [5]: ↓; Variation with respect to DEN: Acet (chemical shift 2.23) [5]: ↑; Variation with respect to DEN: Ala (chemical shift 1.48) [5]: ↓; Variation with respect to DEN: Betaine (chemical shift 3.265) [5]: ↓; Variation with respect to DEN: Chol (chemical shift 3.22) [5]: ↓; Variation with respect to DEN: Cr (chemical shift 3.03) [5]: ↑; Variation with respect to DEN: Glucose (chemical shift 3.23–3.92, 4.63, 5.21) [5]: ↓; Variation with respect to DEN: L1 (LDL) (chemical shift 0.83–0.87) [5]: ↓; Variation with respect to DEN: L2 (VLDL) (chemical shift 0.87–0.90) [5]: ↑; Variation with respect to DEN: L3 (LDL) (chemical shift 1.23–1.27) [5]: ↓; Variation with respect to DEN: L4 (VLDL) (chemical shift 1.27–1.30) [5]: ↑; Variation with respect to DEN: L6 (chemical shift 2.00) [5]: ↓; Variation with respect to DEN: L8 (chemical shift 2.74) [5]: ↓; Variation with respect to DEN: L9 (chemical shift 5.28) [5]: ↓; Variation with respect to DEN: Lys (chemical shift 1.89) [5]: ↓; Variation with respect to DEN: NAG (chemical shift 2.02) [5]: ↑; Variation with respect to DEN: OAG (chemical shift 2.13) [5]: ↑; Variation with respect to DEN: Pyr (chemical shift 2.37) [5]: ↓; Variation with respect to DEN: Tyr (chemical shift 6.89) [5]: ↓
